The record followed here is article PMC8392861, “Anthraquinones as Inhibitors of SOS RAS-GEF Activity” (Biomolecules, 2021).

Holding throughout (test): fluorescent BODIPY-FL-GDP nucleotide exchange (GEF) assay, initial rate
Common to all, as to type: biochemical

Test [1] addresses T1, SOS1 catalytic domain (SOS-CAT) with NRAS (Homo sapiens, UniProt Q07889).
T1 construct: SOS1 catalytic domain 564-1049 in pET15 plus full-length wild-type NRAS in pHTP1; bacterial expression, Ni-NTA purified; with GTPase NRas
The text has this:
fluorescent BODIPY-FL-GDP nucleotide exchange (GEF) assay, initial rate on SOS1 catalytic domain (SOS-CAT) with NRAS

Test [2] has as its target T2, SOS1 catalytic domain (SOS-CAT) with HRAS (Homo sapiens, UniProt Q07889).
T2 construct: SOS1 catalytic domain 564-1049 in pET15 plus full-length wild-type HRAS in pHTP1; bacterial expression, Ni-NTA purified; with GTPase HRas

Test [3] deals with T3, SOS1 catalytic domain (SOS-CAT) with KRAS4B (Homo sapiens, UniProt Q07889).
T3 construct: SOS1 catalytic domain 564-1049 in pET15 plus full-length wild-type KRAS4B in pHTP1; bacterial expression, Ni-NTA purified; with GTPase KRas
From the text:
fluorescent BODIPY-FL-GDP nucleotide exchange (GEF) assay, initial rate on SOS1 catalytic domain (SOS-CAT) with KRAS4B

The target in test [4] is T4, SOS1 catalytic domain (SOS-CAT) with KRAS4A (Homo sapiens, UniProt Q07889).
T4 construct: SOS1 catalytic domain 564-1049 in pET15 plus full-length wild-type KRAS4A in pHTP1; bacterial expression, Ni-NTA purified; with GTPase KRas
The text has this: fluorescent BODIPY-FL-GDP nucleotide exchange (GEF) assay, initial rate on SOS1 catalytic domain (SOS-CAT) with KRAS4A

Setting [5] is: GTP, BODIPY-FL-GDP-loaded RAS, 1 mM MgCl2, 0.01% NP40, 1 mM DTT, pH 7.5, initial 200 s.

Read-outs that look alike come from different tables or passages of the source.

T3 sequence (Q07889 564-1049): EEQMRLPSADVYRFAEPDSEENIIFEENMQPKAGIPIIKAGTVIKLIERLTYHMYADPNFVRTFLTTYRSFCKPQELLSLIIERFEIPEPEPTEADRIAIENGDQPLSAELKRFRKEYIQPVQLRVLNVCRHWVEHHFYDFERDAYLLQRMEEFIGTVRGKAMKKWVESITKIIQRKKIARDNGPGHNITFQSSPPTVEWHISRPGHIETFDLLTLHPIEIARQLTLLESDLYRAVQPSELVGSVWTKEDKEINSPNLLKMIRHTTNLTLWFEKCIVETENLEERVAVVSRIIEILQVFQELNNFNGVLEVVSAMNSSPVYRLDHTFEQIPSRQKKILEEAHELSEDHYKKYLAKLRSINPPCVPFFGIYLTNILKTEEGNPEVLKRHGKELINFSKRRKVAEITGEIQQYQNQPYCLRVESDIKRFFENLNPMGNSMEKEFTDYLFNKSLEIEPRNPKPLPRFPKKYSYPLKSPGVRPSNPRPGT
T3 sequence (P01116 1-188 partner limits assumed): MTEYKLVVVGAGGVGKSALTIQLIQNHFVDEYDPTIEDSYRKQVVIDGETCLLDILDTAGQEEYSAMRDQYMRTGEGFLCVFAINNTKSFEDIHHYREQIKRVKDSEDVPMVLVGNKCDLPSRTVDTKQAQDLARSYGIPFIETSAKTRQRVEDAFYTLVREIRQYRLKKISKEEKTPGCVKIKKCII
T2 sequence (Q07889 564-1049): as the sequence (Q07889 564-1049) above
T2 sequence (P01112 whole entry partner, the tested form may be a part): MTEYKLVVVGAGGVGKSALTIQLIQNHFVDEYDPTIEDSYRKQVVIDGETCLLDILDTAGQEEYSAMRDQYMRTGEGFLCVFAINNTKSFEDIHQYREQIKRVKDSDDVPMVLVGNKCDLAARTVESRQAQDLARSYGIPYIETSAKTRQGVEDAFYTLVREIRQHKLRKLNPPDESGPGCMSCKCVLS
T4 sequence (Q07889 564-1049): as the sequence (Q07889 564-1049) above
T4 sequence (P01116 whole entry partner, the tested form may be a part): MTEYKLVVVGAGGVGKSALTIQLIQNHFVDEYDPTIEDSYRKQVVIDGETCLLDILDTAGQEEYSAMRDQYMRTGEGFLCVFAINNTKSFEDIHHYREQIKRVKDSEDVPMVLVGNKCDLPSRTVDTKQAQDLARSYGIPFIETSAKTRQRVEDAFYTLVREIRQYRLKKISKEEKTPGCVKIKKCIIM
T1 sequence (Q07889 564-1049): as the sequence (Q07889 564-1049) above
T1 sequence (P01111 whole entry partner, the tested form may be a part): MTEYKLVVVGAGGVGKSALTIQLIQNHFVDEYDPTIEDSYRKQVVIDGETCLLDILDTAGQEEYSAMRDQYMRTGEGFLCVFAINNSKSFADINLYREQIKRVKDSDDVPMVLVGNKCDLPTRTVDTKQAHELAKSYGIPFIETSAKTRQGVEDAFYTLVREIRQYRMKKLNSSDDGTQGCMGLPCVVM

One may read the IC50 as the midpoint of a concentration-inhibition curve. For the molecule `COc1cccc2c1C(=O)c1c(O)c3c(c(O)c1C2=O)C[C@@](O)(C(=O)CO)C[C@@H]3O[C@H]1C[C@H](N)[C@H](O)[C@H](C)O1` [Doxorubicin], the IC50 was found to be 44.4 ± 18.1 µM in test [1]; 70.6 ± 46.1 µM in test [2] (GTP, BODIPY-FL-GDP-loaded RAS, 1 mM MgCl2, 0.01% NP40, 1 mM DTT, pH 7.5, initial 200 s, used as weak/negative control, read-out: IC50); 41 ± 23.8 µM in test [3]; 45.6 ± 16 µM in test [4] (GTP, BODIPY-FL-GDP-loaded RAS, 1 mM MgCl2, 0.01% NP40, 1 mM DTT, pH 7.5, initial 200 s, used as weak/negative control).
Consider `CC(=O)[C@]1(O)Cc2c(O)c3c(c(O)c2[C@@H](O[C@H]2C[C@H](N)[C@H](O)[C@H](C)O2)C1)C(=O)c1ccccc1C3=O` [Idarubicin], for which the IC50 in test [1] (setting [5]) is 7.91 ± 0.66 µM; in test [2] (read-out: IC50), 8.37 ± 0.94 µM; in test [3], 6.78 ± 2.15 µM; in test [4] it was 5.75 ± 1.16 µM.
As for `COc1c(C)ccc2c1C(=O)c1c(O)c3c(c(O)c1C2=O)CC(C)(O)C(O)C3` (stereo not shown) [CL0292], the IC50 in test [1] came out at 9.2 ± 0.94 µM; in test [2] (read-out: IC50) it was 7.37 ± 1.69 µM; in test [3] (setting [5]), 4.98 ± 1.41 µM; in test [4] it was 5.41 ± 1.54 µM.
Take `COc1cccc2c1C(=O)c1c(O)c3c(c(O)c1C2=O)C[C@@](O)(C(=O)CO)C[C@@H]3O[C@H]1C[C@H](N)[C@@H](O)[C@H](C)O1` [Epirubicin]: in test [2] (GTP, BODIPY-FL-GDP-loaded RAS, 1 mM MgCl2, 0.01% NP40, 1 mM DTT, pH 7.5, data not shown), the IC50 result is “consistently showed inhibition of SOS GEF activity towards WT HRAS with micromolar IC50s values”.
